The source of these data is US5004756A, “Anti-cancer activity potentiator” (priority 1988, dated 1991).

Values after ≈ are worked out from the molar mass of the structure shown. Where two headings read alike, the source gives them in different places.

What is called IC50 is the concentration needed to halve the response being measured.

Series [1] deals with V79/S. In words: Colony formation (proliferation) inhibition, sensitive Chinese hamster cells (A-I Part 1). It is filed as cell-based. As to conditions: Cricetulus griseus, 216 h. How it is done: (§1) Sensitive cell line V79/S and ADM-resistant cell line V79/ADM of the Chinese hamster were used, and sensitive cell line PLC/S and cholchicin-resistant cell line PLC/Col, as human hepatoma cells.
(§2) The sensitive cell lines (400 cells) or the resistant cell lines (600 cells) were each incubated for 24 hours in 10 ml of Eagle's MEM medium containing 10% bovine serum. Each of the drugs indicated in Table 1 below was dissolved in ethanol, and 50 microliters of the resulting solution was added to the medium. The incubation was further carried out for 9 days. The concentration of the drug which inhibits 50% of the colony formation (proliferation) of the tumor cells was calculated.
(§3) V79/S and V79/ADM were tested by using all of the drugs described above, but PLC/S and PLC/Col were tested by using only the malate of formula (I), adriamycin and peplomycin.
(§4) The concentrations (micrograms/ml) required to inhibit 50% of the proliferation of the tumor cells, expressed by IC50, are shown in Table 1.

The test system of series [2] is V79/ADM. The experiment in a line: Colony formation (proliferation) inhibition, ADM-resistant Chinese hamster cells (A-I Part 1). The series is classed as cell-based. The following applies: Cricetulus griseus, 216 h. How it is done: as §1, §2, §3, §4
Series [3] concerns PLC/S. The experiment in a line: Colony formation (proliferation) inhibition, sensitive human hepatoma cells (A-I Part 1). It is filed as cell-based. As to conditions: Homo sapiens, 216 h. The protocol:
as §1, §2, §3, §4

The subject of series [4] is PLC/Col. The experiment in a line: Colony formation (proliferation) inhibition, colchicin-resistant human hepatoma cells (A-I Part 1). As to conditions: Homo sapiens, 216 h. The series is classed as cell-based. How it is done:
as §1, §2, §3, §4

Series [5] has as its system clinically isolated human cancer cells (lung adenocarcinoma, lung squamous cell carcinoma, osteosarcoma, ovarian carcinoma). The experiment in a line: Anti-tumor activity on clinically isolated human cancer cells, morphological changes (A-I Part 2). As to conditions: 0.3 μg/ml. The series is classed as cell-based.
The subject of series [6] is Lewis lung cancer cells. In words: Life prolongation of BDF1 mice with Lewis lung cancer (A-II Part 2). The series is classed as in vivo, mouse (male BDF1). The protocol: Male BDF1 mice having a body weight of 20±2 g (6 per group) were used, and as tumor cells, Lewis lung cancer cells were transplanted under the skin of the side abdomen of each of the mice at a rate of 10^5 cells. […] The life prolongation rate of the mice in each group was determined by the treated group/non-treated control group (T/C %).

Series [7] has as its system V79/S. The experiment in a line: Anti-cancer activity potentiating action, colony formation, V79/S parent cells (A-III). The series is classed as cell-based, Chinese hamster. The following applies: V79/S; for IC50: Cricetulus griseus. How it is done:
(§5) The anti-cancer activity potentiating action of the malate of formula (I) was examined using Chinese hamster cells (sensitive cell line V79/S and ADM-resistant cell line V79/ADM), human hepatoma cells (sensitive cell line PLC/S and colchicin-resistant cell line PLC/Col) and mouse leukemia cells (sensitive cell line L5178Y/S) and aclarubicin-resistant cell line L5178Y/ACR).
(§6) Of these tumor cells, the sensitive cells (400 cells) and the resistant cells (600 cells) were each incubated in 10 ml of Eagle's MEM medium containing 10% bovine serum for 24 hours, and then each of the test drugs indicated in Table 6 was added. Thereafter, the incubation was carried out for 9 days. The concentration (IC50 : micrograms/ml) of the test drug required to inhibit 50% of the colony formation (proliferation) of the tumor cells was calculated.
(§7) (A) Chinese hamster V79 cells
(§8) As anti-cancer agents, there were used adriamycin (ADM), aclarubicin (ACR), actinomycin D (ACD), 5-fluorouracil (5-FU), cytarabin (Ara-C), cisplatin (CDDP), methotrexate (MTX), mitomycin C (MMC), nimustine (ACNU), mitoxantrone, etoposide ([…]), vincristine (VCR), bleomycin (BLM) and peplomycin (PEP). For the sensitive cells, the anti-cancer agents were used in combination with 10 micrograms/ml of the malate of formula (I), and for the resistant cells, the anti-cancer agents were used in combination with the malate of formula (I) 3 micrograms/ml, 5 micrograms/ml, and 10 micrograms/ ml.

The test system of series [8] is V79/ADM. In words: Anti-cancer activity potentiating action, colony formation, V79/ADM resistant cells (A-III). The following applies: V79/ADM; for IC50: Cricetulus griseus. It is filed as cell-based, Chinese hamster. The protocol:
as §5, §6, §7, §8

The subject of series [9] is PLC/S. The experiment in a line: Anti-cancer activity potentiating action, colony formation, PLC/S parent cells (A-III). The series is classed as cell-based, human. The following applies: for IC50: Homo sapiens. The protocol: as §5, §6
(§9) As anti-cancer agents, adriamycin (ADM) and peplomycin (PEP) were used in combination with the malate of formula (I) (5 micrograms/ml).

Series [10] concerns PLC/Col. In words: Anti-cancer activity potentiating action, colony formation, PLC/Col resistant cells (A-III). The following applies: for IC50: Homo sapiens. The series is classed as cell-based, human. The protocol:
as §5, §6, §9

For series [11], the system named is L5178Y/S. In words: Anti-cancer activity potentiating action, colony formation, mouse leukemia sensitive cells (table head prints PLC/S). It is filed as cell-based. The following applies: head prints PLC/S (parent cells); for IC50: Mus musculus, L5178Y. How it is done:
as §5, §6
(§10) Adriamycin (ADM) and aclarubicin (ACR) as anti-cancer agents were used in combination with 20 micrograms/ml of the malate of formula (I).

For series [12], the system named is L5178Y/ACR. The experiment in a line: Anti-cancer activity potentiating action, colony formation, aclarubicin-resistant mouse leukemia cells (table head prints PLC/ACR). As to conditions: for IC50: Mus musculus, L5178Y. It is filed as cell-based. The protocol:
as §5, §6, §10

Series [13] deals with Human stomach cancer cell line H-81. In words: Anti-cancer activity potentiating action in nude mice with human stomach cancer H-81 (A-V). It is filed as in vivo, human tumor in ICR nude mice. From the text:
ICR nude mice (4-5 weeks old; 7 per group) were used. Human stomach cancer cell line H-81 was used as tumor cells. Tissue pieces, 2 mm in square, were taken, and transplanted subcutaneously to the right back portion of the nude mice. […] The sequence of the drug administration was as follows: […] The administration was further repeated every five days from the day on which the administration was first carried out. The total number of administrations of each drug was four. […] The measurement was made on the days on which the drugs were administered, and four weeks after the start of drug administration.

Series [14] relates to human tumor cells (muscle fibrosarcoma HT-1080). The experiment in a line: Anti-cancer activity potentiating action in nude mice with HT-1080 (A-VI). The series is classed as in vivo, human tumor in ICR nude mice. As to conditions: ADM 4 mg/kg i.v., days 5, 10, 15, 20; day 36. The protocol:
ICR nude mice, 6 per group, were used, and the experiment was conducted substantially in accordance with the procedure described in A-V.
As tumor cells, human tumor cells (muscle fibrosarcoma HT-1080) were used, and 5 days after the transplantation, drug administration was started.
The administration was further performed every 5 days from the day of starting the administration, and the total number of administrations was therefore 4.
Mitomycin C (MMC) was tested by the same way as above.
Thirty-six days after the transplantation of the tumor, a tumor mass was extracted and its weight was measured. From the difference of the weight of the tumor from the non-treated control group, the tumor growth inhibition ratio (%) was calculated.

Series [15] can be described thus: Particle charge / formation of lipid emulsion. It is filed as physicochemical. An excerpt: To secure fine particles of 1 micron or below in size which can actually be administered as a lipid emulsion, the particles should have a charge within the range of +20 mV to +50 mV.
Series [16] deals with B16 melanoma cells. The experiment in a line: Life prolongation of BDF1 mice with B16 melanoma (A-II Part 1). It is filed as in vivo, mouse (male BDF1). The following applies: 0.45 mg/kg i.p., three times every 4 days. The protocol: Three to eight male BDF1 mice having a body weight of 20±3 g were used, and B16 melanoma cells were selected as tumor cells. The melanoma cells were homogenized, and the homogenate was transplanted subcutaneously to the mice in an amount of 0.5 ml/mouse. After 7 days, the malate of formula (I) in accordance with this invention and an anti-cancer agent, neocartinostatin (NCS), were intraperitoneally administered either singly or in combination three times every 4 days in a dose of 5 mg/kg and 0.45 mg/kg for each time. The life prolonging rate of the mice was determined by the treated group/non-treated control group (T/C %).

The mark [17] stands for this setting: alone, Table 6, read-out: IC50, anti-cancer agent alone.
Where [18] appears, read: with compound (I) 10 μg/ml, read-out: IC50 in combination with compound (I).
Where [19] appears, read: read-out: IC50, anti-cancer agent alone.
[20] abbreviates: read-out: IC50 in combination with compound (I).
[21] abbreviates: alone, Table 7 lower part, read-out: IC50, anti-cancer agent alone.
Setting [22] is: with compound (I) 20 μg/ml, read-out: IC50 in combination with compound (I).

Regarding `COc1cccc2c1C(=O)c1c(O)c3c(c(O)c1C2=O)C[C@@](O)(C(=O)CO)C[C@@H]3O[C@H]1C[C@H](N)[C@H](O)[C@H](C)O1` [ADM, adriamycin], the IC50 in series [1] was 0.057 µg/mL (≈ 0.105 µM); in series [2], 8.8 µg/mL (≈ 16.2 µM); in series [3], 0.005 µg/mL (≈ 0.0092 µM); in [4], 0.08 µg/mL (≈ 0.147 µM); in series [7] (setting [17]), 0.057 µg/mL; in series [7] (setting [18]) it was 0.008 µg/mL. Further, the IC50 in series [8] (setting [17]) came out at 8.8 µg/mL; in series [8] (setting [18]), 0.25 µg/mL; in series [9] (setting [19]), 0.005 µg/mL; in series [9] (setting [20]), 0.0053 µg/mL; in [10] (setting [19]), 0.08 µg/mL; in [10] (setting [20]), 0.027 µg/mL. In addition, the IC50 in series [11] (setting [21]) stood at 0.048 µg/mL; in series [11] (setting [22]), 0.016 µg/mL; in series [12] (setting [21]) it was 0.06 µg/mL; in series [12] (setting [22]), 0.18 µg/mL. Besides, the “Efficacy ratio (rated significant by Fisher's test)” value in series [5] is 3/8. Also, the “T/C (life prolongation rate)” value is 218% in series [6] (1.25 mg/kg i.v.), 173% in series [6] (2.5 mg/kg i.v. (lipid emulsion calculated as malate)) and 241% in series [6] (5.0 mg/kg i.v. (lipid emulsion calculated as malate)). Further, the Potentiation activity in series [7] (with compound (I) 10 μg/ml) is given as 7.1 times; in series [8] (with compound (I) 10 μg/ml), 35.2 times; in [9] (PLC/S, with compound (I) 5 μg/ml), 1.0 times; in series [10] (PLC/Col, with compound (I) 5 μg/ml), 3.0 times; in [11] (with compound (I) 20 μg/ml), 3.0 times; in series [12] (with compound (I) 20 μg/ml), 3.7 times. For the same molecule, the “Tumor growth inhibition rate” value in [13] (2 mg/kg i.v., 4 weeks later, **p < 0.1 vs control) was 45.2%; in series [13] (2 mg/kg i.v., 5 days later), 16.5%; in [13] (2 mg/kg i.v., 10 days later), 45.7%; in series [13] (2 mg/kg i.v., 15 days later) it was 49.5%; in series [13] (ADM 5 mg/kg i.v. singly, 4 weeks later, *p < 0.5 vs control) it was 59.7%. For the same molecule, the “Tumor growth inhibition ratio” value in series [14] is given as 96.1%. Further, the Tumor weight in series [14] stood at 0.14 ± 0.32.
`COc1ccc(CNCCN(CC=C(C)CCC=C(C)CCC=C(C)CCC=C(C)CCC=C(C)CCC=C(C)CCC=C(C)CCC=C(C)CCC=C(C)C)Cc2ccc(OC)c(OC)c2)cc1OC` [compound (II), N-solanesyl-N,N'-bis(3,4-dimethoxybenzyl)ethylenediamine]: the “Formation of a lipid emulsion” value in [15] is “cannot be formed into a lipid emulsion”. Besides, the “Particle charge within +20 mV to +50 mV / aggregation” value in series [15] (lipid emulsion particles) is recorded as “particle aggregation occurs”.

B1: neocartinostatin (protein, UniProt P0A3R9 35-147, looked up)
Neocarzinostatin: AAPTATVTPSSGLSDGTVVKVAGAGLQAGTAYDVGQCAWVDTGVLACNPADFSSVTADANGSASTSLTVRRSFEGFLFDGTRWGTVDCTTAACQVGLSDAAGNGPEGVAISFN
For B1, the “T/C (life prolonging rate at M.S.T.)” value in series [16] is on record as 135%.
